From US7335661B2, “Fungicidal mixtures” (BASF Aktiengesellschaft, priority 2002, dated 2008)

Tests used:
Botrytis cinerea = experiment: Activity against gray mold on bellpepper leaves caused by Botrytis cinerea, protective application; assay type: in vivo; conditions: individual active compound, bellpepper seedlings, 5 days
Description: (§1) The active compounds, separately or jointly, were prepared as a stock solution with 0.25% by weight of active compound in acetone or DMSO. 1% by weight of the emulsifier Uniperol® EL (wetting agent having emulsifying and dispersing action based on ethoxylated alkylphenols) was added to this solution, and the solution was diluted with water to the desired concentration.
(§2) Evaluation was carried out by determining the infected leaf areas as a percentage. These percentages were converted into efficacies. The efficacy (W) was calculated as follows using Abbot's formula: W=(1−a/b)·100 • a corresponds to the fungal infection of the treated plants in % and • b corresponds to the fungal infection of the untreated (control) plants in %
(§3) An efficacy of 0 means that the infection level of the treated plants corresponds to that of the untreated control plants; an efficacy of 100 means that the treated plants were not infected.
(§4) The expected efficacies of the mixtures of the active compounds were determined using Colby's formula [R. S. Colby, Weeds 15, 20-22 (1967)] and compared with the observed efficacies. Colby's formula: E=x+y−x·y/100 • E expected efficacy, expressed as % of the untreated control, when using the mixture of the active compounds A and B at the concentrations a and b • x efficacy, expressed as % of the untreated control, when using active compound A at a concentration a • y efficacy, expressed as % of the untreated control, when using active compound B at a concentration b
Bellpepper seedlings of the cultivar “Neusiedler Ideal Elite” were, after 4-5 leaves were well developed, sprayed to runoff point with an aqueous suspension having the active compound concentration stated below. The next day, the treated plants were inoculated with a spore suspension of Botrytis cinerea which contained 1.7×10^6 spores/ml in a 2% strength aqueous biomalt solution. The test plants were then placed in a climatized chamber at 22-24_C and high atmospheric humidity. After 5 days, the extent of the fungus development on the leaves could be determined visually in %.
Evaluation was carried out analogously to example 1.

Puccinia recondita = experiment: Curative activity against wheat leaf rust caused by Puccinia recondita; assay type: in vivo; conditions: individual active compound, 7 days
Description: as §1
Leaves of potted wheat seedlings of the cultivar “Kanzler” were dusted with spores of leaf rust (Puccinia recondita). For 24 hours, the pots were then placed at 20-22_C in a chamber with high atmospheric humidity (90-95%). During this time, the spores germinated and the germinal tubes penetrated into the leaf tissue. The next day, the infected plants were sprayed to runoff point with an aqueous suspension having the concentration of active compounds stated below. The suspension or emulsion was prepared as described above. After the spray coating had dried on, the test plants were cultivated in a greenhouse at 20-22_C and 65-70% relative atmospheric humidity for 7 days. The extent of rust fungus development on the leaves was then determined.
as §2, §3, §4

[1] = 4 ppm in the spray liquor, wheat seedlings cv. Kanzler

SMILES | Efficacy in % of the untreated control (Botrytis cinerea; 0.25 ppm in the spray liquor) | Efficacy in % of the untreated control (Botrytis cinerea; 1 ppm in the spray liquor) | Efficacy in % of the untreated control (Botrytis cinerea; 4 ppm in the spray liquor) | Efficacy in % of the untreated control (Puccinia recondita; 1 ppm in the spray liquor, wheat seedlings) | Efficacy in % of the untreated control (Puccinia recondita; [1]) | Efficacy in % of the untreated control (Puccinia recondita; 0.25 ppm in the spray liquor, wheat seedlings)
CC1CCN(c2c(-c3c(F)cc(F)cc3F)c(Cl)nc3ncnn23)CC1 [I, 5-chloro-7-(4-methylpiperidin-1-yl)-6-(2,4,6-trifluorophenyl)-[1,2,4]triazolo[1,5-a]pyrimidine] | 0% | 37% | 68% | 0% | 56% | 
O=C(Nc1ccccc1-c1ccc(Cl)cc1)c1cccnc1Cl [II-5, boscalid, reference compound] | 0% | 0% |  |  | 0% | 0%
